Results on 7 molecules are retold here after PubChem BioAssay (NCI).

Among the test systems are 786-0 renal; A498 renal; ACHN renal; BT-549 breast; CAKI-1 renal; DU-145 prostate; HCT-15 colon; HT29 colon; MDA-MB-231 breast; MDA-MB-435; NCI-H226 lung; NCI-H460 lung; NCI-H522 lung; OVCAR-8 ovarian; SK-MEL-28 melanoma; SK-OV-3 ovarian; SN12C renal; SR leukemia; T-47D breast; UACC-257 melanoma.
What all share (test): NCI anticancer screen, dose series, 48 h

The structures appear in SMILES notation. Several values for one entry are separate records, joined by “and”; a condition that tells them apart may be missing. Identical values can stand only once.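 Method: 48-hour compound exposure of cells in 96-well plates, five concentrations, linear interpolation of endpoints. The concentration for full growth arrest is given as TGI.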 Some results are limits rather than exact numbers.

As to `Nc1nc2c(c(=O)[nH]1)NC(CCNc1ccc(C(=O)O)cc1)CN2` (stereo not given), the TGI with 786-0 renal, with A498 renal, with ACHN renal, with BT-549 breast, in the assay with CAKI-1 renal and with DU-145 prostate was over 100 µM each time. Further, the TGI with HCT-15 colon, in the assay with HT29 colon, with MDA-MB-231 breast, in the assay on MDA-MB-435, in the assay on NCI-H226 lung and in the assay on NCI-H460 lung was over 100 µM each time. Besides, the TGI in the assay with NCI-H522 lung, in the assay with OVCAR-8 ovarian, with SK-MEL-28 melanoma, in the assay on SK-OV-3 ovarian, in the assay on SN12C renal and in the assay with SR leukemia was over 100 µM in each case. In addition, the TGI in the assay on T-47D breast and in the assay on UACC-257 melanoma was over 100 µM each time.

`C=C(Cl)C(Cl)(CBr)CCC(Br)C(C)(C)Cl` (stereo not given): the TGI is 0.9 µM and 1.03 µM and 3.78 µM in the assay on 786-0 renal; 4.03 µM and 4.02 µM and 6.05 µM with A498 renal; 2.62 µM and 2.63 µM and 3.13 µM with ACHN renal; 7.21 µM and 15.7 µM and 9.1 µM with BT-549 breast; 2.36 µM and 1.99 µM and 2.1 µM in the assay with CAKI-1 renal; 3.86 µM and 3.1 µM and 7.05 µM in the assay with DU-145 prostate. Besides, the TGI was 10.6 µM and 6.12 µM and 27.8 µM in the assay on HCT-15 colon; 2.19 µM and 1.94 µM and 2.1 µM in the assay with HT29 colon; 2.92 µM and 5.94 µM and 27.2 µM with MDA-MB-231 breast; 6.56 µM and 4.63 µM and 23.4 µM with MDA-MB-435; 38.4 µM and 32.5 µM and 37.9 µM with NCI-H226 lung; 3.66 µM and 2.93 µM and 5.82 µM with NCI-H460 lung. Further, the TGI in the assay on NCI-H522 lung is 34.9 µM and 27.1 µM and 28.9 µM; in the assay with OVCAR-8 ovarian, 5.15 µM and 2.59 µM and 17 µM; in the assay with SK-MEL-28 melanoma, 8.93 µM and 3.51 µM and 24.1 µM; in the assay with SK-OV-3 ovarian, 62.7 µM; with SN12C renal, 21.9 µM and 19.3 µM and 28.1 µM; in the assay with SR leukemia, 61.2 µM and 26.5 µM and 33.9 µM. In addition, the TGI with T-47D breast was 2.99 µM and 5.16 µM and 1.25 µM; with UACC-257 melanoma it was 6.07 µM and 3.81 µM and 14.1 µM.

For `O=C1CC(=O)NC(=NN2C(=O)/C(=C/c3ccc(Cl)cc3)N=C2c2ccccc2)N1`, the TGI in the assay on 786-0 renal is 37.5 µM; with A498 renal, 31.7 µM; in the assay with ACHN renal, 52.4 µM; in the assay on BT-549 breast, 30.1 µM; with CAKI-1 renal it was over 100 µM; in the assay with DU-145 prostate, over 100 µM. In addition, the TGI turned out to be 30.8 µM with HCT-15 colon; 31.5 µM in the assay with HT29 colon; 35.6 µM in the assay on MDA-MB-231 breast; 29.1 µM with MDA-MB-435; 31.5 µM in the assay with NCI-H226 lung; 22.9 µM in the assay with NCI-H460 lung. In addition, the TGI was 23.5 µM in the assay with NCI-H522 lung; 30.5 µM with OVCAR-8 ovarian; 33.6 µM in the assay with SK-MEL-28 melanoma; 51.8 µM in the assay on SK-OV-3 ovarian; 32.3 µM in the assay with SN12C renal; 21.3 µM in the assay on SR leukemia. Also, the TGI was over 100 µM with T-47D breast and 42 µM in the assay with UACC-257 melanoma.

As for `COC1(c2ccccc2)NC(=S)NN=C1c1ccccc1` (stereo not given), the TGI in the assay on 786-0 renal is over 100 µM; in the assay with A498 renal, over 100 µM; with ACHN renal it was over 100 µM; in the assay with BT-549 breast, 82.8 µM; with CAKI-1 renal, over 100 µM; in the assay with DU-145 prostate, over 100 µM. The TGI in the assay on HCT-15 colon was 64.2 µM; in the assay on HT29 colon it was over 100 µM; with MDA-MB-231 breast, 70.9 µM; in the assay on MDA-MB-435 it was 39.1 µM; with NCI-H460 lung, 71.6 µM; in the assay on NCI-H522 lung, 73.8 µM. Also, the TGI with OVCAR-8 ovarian was 84 µM; in the assay with SK-MEL-28 melanoma it was over 100 µM; in the assay on SK-OV-3 ovarian, 78.4 µM; with SN12C renal, 60.8 µM; in the assay with SR leukemia, 85.8 µM; in the assay on T-47D breast, over 100 µM. The molecule also showed a TGI with UACC-257 melanoma of over 100 µM.

Turning to `O=S(=O)(/N=C(\NO)Nc1ccc(Cl)cc1)c1cc(S(=O)(=O)c2ccccc2)cs1`, the TGI with 786-0 renal worked out at 30 µM; in the assay with A498 renal, 28.4 µM; in the assay on ACHN renal, 42.3 µM; in the assay with BT-549 breast, 45.7 µM; in the assay on CAKI-1 renal it was 46.7 µM; in the assay with DU-145 prostate it was 33 µM. The TGI with HCT-15 colon came to 44.3 µM; in the assay on HT29 colon it was 47 µM; in the assay with MDA-MB-231 breast, 56.1 µM; in the assay with MDA-MB-435 it was 29.9 µM; in the assay on NCI-H226 lung, 51.6 µM; in the assay on NCI-H460 lung, 40.7 µM. Moreover, the TGI amounted to 25.2 µM in the assay on NCI-H522 lung; 36.7 µM in the assay with OVCAR-8 ovarian; 41.2 µM in the assay on SK-MEL-28 melanoma; 33.6 µM in the assay on SN12C renal; 95.7 µM in the assay with SR leukemia; 44.3 µM in the assay with T-47D breast. Further, in the assay with UACC-257 melanoma, the TGI is 39 µM.

Consider `COC(=O)c1ccccc1/C=C1\Cc2ccc3ccccc3c2C1C` (stereo not given), for which the TGI with 786-0 renal, in the assay with A498 renal, in the assay on ACHN renal, in the assay with BT-549 breast, with CAKI-1 renal and in the assay on DU-145 prostate was over 100 µM in each case. Moreover, the TGI in the assay on HCT-15 colon, in the assay on MDA-MB-231 breast, with MDA-MB-435, with NCI-H226 lung, in the assay with NCI-H460 lung and in the assay with NCI-H522 lung was over 100 µM each time. Moreover, the TGI in the assay with OVCAR-8 ovarian was over 100 µM; with SK-MEL-28 melanoma it was over 100 µM; in the assay with SN12C renal, over 100 µM; with SR leukemia, over 100 µM; with T-47D breast, 69 µM; in the assay on UACC-257 melanoma, over 100 µM.

As for `CCOC(=O)C1=C(C)N(CC(C)C)C2(O)C(OC)CC(=O)C3C(=O)N(c4ccccc4)C(=O)C132` (stereo not given), the TGI with 786-0 renal is over 100 µM; in the assay with A498 renal it was over 100 µM; with ACHN renal, 72 µM; in the assay with BT-549 breast, over 100 µM; in the assay on CAKI-1 renal, 98.7 µM; in the assay on DU-145 prostate, over 100 µM. The TGI in the assay on HCT-15 colon is over 100 µM; in the assay with HT29 colon, 57.1 µM; in the assay with MDA-MB-231 breast, over 100 µM; with MDA-MB-435 it was over 100 µM; with NCI-H226 lung, 57.7 µM; in the assay on NCI-H460 lung, over 100 µM. The TGI in the assay on NCI-H522 lung is 34.5 µM; with OVCAR-8 ovarian, 59.6 µM; in the assay with SK-MEL-28 melanoma it was 70.1 µM; with SN12C renal it was over 100 µM; in the assay with SR leukemia it was 49.9 µM; with T-47D breast it was over 100 µM. The same molecule yielded a TGI with UACC-257 melanoma of over 100 µM.
